From patent publication US20220089616A1, “CARBORANE-BASED HISTONE DEACETYLASE (HDAC) INHIBITORS” (The Regents of the University of California, priority 2018, published 2022)

Test system: primary mouse NPCs
Assay: TUNEL assay, mouse NPCs
Type: cell-based
Settings: 40 μM
Experimental: Primary neural progenitor cells (NPCs) were a gift from Dr. Harley Kornblum (University of California Los Angeles). The cells were collected from embryonic day 14 (E14) mouse brain according to procedures approved by the UCLA Chancellor's Committee for Animal Research. The following supplements were added to the Neurobasal media: 1:50 B27, 1:100 Pen-Strep, 2 mM 1-glutamine (all from GIBCO/BRL), 2 μg/ml heparin (Sigma), and 20 ng/ml FGF2 (PeproTech). Cells were incubated at 37° C. in the presence of 5% CO2. Additional FGF2 was added every third day, and cultures were passaged every 7 days. During each passage, spheres were enzymatically and mechanically dissociated with Accumax (Sigma).
Click-iT® Plus TUNEL Assay (Molecular Probes Life Technologies, Catalog #: C10617)
Primary mouse NPCs were passaged and counted as previously described. Cells without treatment were used as a negative control, DNaseI (Cat. no. 18068-015) was used to generate a positive control, and 10 μL of inhibitor solutions were used at varying concentrations. A 24-well plate was prepped with 12 mm circle glass coverslips in the wells. Coverslips were coated with poly-L-lysine followed by laminin prior to plating the cells. […]

TUNEL positive cells (FIG. 11A): perceived elevation
Compound: CN(Cc1ccc(/C=C/C(=O)NO)cc1)CC12CC3CC(CC(C3)C1)C2 [Martinostat]
toxicity by average cell population count of confocal images (5 positions): higher toxicity
